Reference: patent US11008292B2, “FGFR4 inhibitor and preparation method and use thereof” (GUANGDONG ZHONGSHENG PHARMACEUTICAL CO., LTD, priority 2016, dated 2021)

What was measured:
[1] = system: Hep3B Transplantation Models; test: Tumor growth inhibition (TGI), antitumor activity test of mice in vivo; conditions: 100 mg/kg, BID, Hep3B transplantation model
Method: The evolutionary growth potential of a tumor was assessed by the relationship between the volume of the tumor and time. The long axis (L) and short axis (W) of a subcutaneous tumor were determined by a caliper twice a week, the tumor volume (TV) was calculated by the formula of ((L×W^2)/2). TGI was calculated by the difference value between the median of tumor volumes of mice in the solvent group and the median of tumor volumes of mice in the drug group, and represented by the percentage accounting for the median of tumor volumes in the solvent control group,
Calculated by the following formula: % TGI=((the median of tumor volume (control group)−the median of tumor volume (dosing group))/the median of tumor volume (control group))×100%
The original statistical analysis was completed by the analysis of repeated variance determination. Subsequently, multiple comparisons were performed by a Scheffe psot hoc experimental method. Single solvent (0.5% methylcellulose+1% aqueous solution of Tween) was the negative control.

[2] = biological target: T1, FGFR4 kinases (Homo sapiens, UniProt P22455); test: In vitro enzyme activity test, Z′-LYTE Assay, FGFR4 enzymatic reaction; assay type: biochemical; conditions: Z′-LYTE detection; 150 μM ATP
T1 construct: purchased Life technology
Method: (§1) The inhibitory effects of the compounds on FGFR4 kinases were assessed by detecting the enzymatic activities through Z′-LYTE® Assay, with the IC50 value of the compound as the indicator. This activity test was performed by Life technology.
(§2) The test compounds were diluted in a concentration gradient of 3-times, the final concentrations were 10 concentrations ranging from 10 μM to 0.5 nM, with double hole for each concentration; the content of DMSO in the detection reaction was 1%.
FGFR4 Enzymatic Reaction:
[…] The detection plate was Bar-coded Corning, low volume NBS, black 384-well plate, reaction conducted at room temperature for 60 minutes, and the reaction system was 10μμL.
(§3) To the kinase reaction solution was added 5 μL Development reagent B (1:64) to stop the reaction and incubated at 23° C. for 60 minutes, reading the plate with Envision instrument.
(§4) Data was transformed into the phosphorylation rate and the inhibitory rate by curve fitting with Model 205 in XLFIT (iDBS) to obtain the IC50 data of the compounds. It was set as 0% if the bottom of the curve was not in the range of −20% to 20%; otherwise it was set as 100% if the top of the curve was not in the range of 70% to 130%.

[3] = Pharmacokinetic evaluation in mice (IV and oral gavage); assay type: in vivo, female Balb/c nude mice; conditions: for AUC(0-t) / clearance / half-life / Vd / Cmax / Tmax: mouse, plasma; for clearance: read-out: Cl (plasma clearance); for half-life: read-out: T1/2 (elimination half-life) (converted); for Vd: read-out: Vdss (steady-state apparent volume of distribution); for Cmax: read-out: Cmax (peak concentration); for Tmax: read-out: Tmax (time to peak)
Method: […] The test compound suspended in the corresponding solvent at 1 mg/ml was administered by gavage to female Balb/c nude mice (fasted overnight, at an age of 7-9 weeks), with a dosage of 10 mg/kg. Two groups of animals were both blood sampled about 30 μL from jugular vein or tail vein at 0.0833, 0.25, 0.5, 1.0, 2.0, 4.0, 6.0, 8.0 and 24 h post-administration, which was placed into an anticoagulant tube charged with EDTA-K2, and plasma was separated by centrifugation. Plasma concentrations were determined by LC-MS/MS process using WinNonlin™ Version 6.3 (Pharsight, Mountain View, Calif.) pharmacokinetic software, calculating the related pharmacokinetic parameters with a linear logarithmic trapezoidal method for […] models.

[4] = biological target: T2, FGFR1 protein kinase (Homo sapiens, UniProt P11362); test: In vitro enzyme activity test, Z′-LYTE Assay, FGFR1 enzymatic reaction; assay type: biochemical; conditions: Z′-LYTE detection; 25 μM ATP
T2 construct: purchased Life technology
Method: as §1, §2
FGFR1 Enzymatic Reaction:
1 nM FGFR1 protein kinase, 2 μM Tyr4 peptide, 25 μM ATP, 50 mM HEPES (pH 7.5), 10 mM MgCl2, 1 mM EGTA, 0.01% BRIJ-35, 2 mM MnCl2, 1 mM DTT. The detection plate was Black Proxiplate 384-Plus plate (PerkinElmer), reaction conducted at room temperature for 60 minutes, and the reaction system was 10μμL.
as §3, §4

[5] = IV tail vein 2 mg/kg, female Balb/c nude mice
[6] = PO gavage 10 mg/kg, female Balb/c nude mice

T1 sequence (P22455 22-802): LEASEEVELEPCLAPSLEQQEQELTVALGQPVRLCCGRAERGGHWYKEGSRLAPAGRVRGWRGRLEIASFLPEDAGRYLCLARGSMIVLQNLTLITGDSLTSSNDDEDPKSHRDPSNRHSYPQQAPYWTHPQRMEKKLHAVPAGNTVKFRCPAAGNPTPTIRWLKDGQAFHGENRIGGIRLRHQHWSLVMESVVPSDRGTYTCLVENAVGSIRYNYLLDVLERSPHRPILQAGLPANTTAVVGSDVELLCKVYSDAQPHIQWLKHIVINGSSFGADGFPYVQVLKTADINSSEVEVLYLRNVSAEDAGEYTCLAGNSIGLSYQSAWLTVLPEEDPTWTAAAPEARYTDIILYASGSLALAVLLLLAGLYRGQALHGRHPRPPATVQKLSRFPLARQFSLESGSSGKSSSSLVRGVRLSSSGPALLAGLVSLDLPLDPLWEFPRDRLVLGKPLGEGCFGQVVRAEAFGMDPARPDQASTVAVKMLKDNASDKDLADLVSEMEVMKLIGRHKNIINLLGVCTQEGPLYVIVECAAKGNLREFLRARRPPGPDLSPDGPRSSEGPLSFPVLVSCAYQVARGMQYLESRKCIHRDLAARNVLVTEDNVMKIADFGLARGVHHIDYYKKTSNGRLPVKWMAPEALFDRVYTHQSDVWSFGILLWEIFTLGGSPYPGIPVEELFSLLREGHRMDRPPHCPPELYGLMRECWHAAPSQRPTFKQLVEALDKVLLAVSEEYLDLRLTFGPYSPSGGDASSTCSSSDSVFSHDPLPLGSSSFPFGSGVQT
T2 sequence (P11362 22-822): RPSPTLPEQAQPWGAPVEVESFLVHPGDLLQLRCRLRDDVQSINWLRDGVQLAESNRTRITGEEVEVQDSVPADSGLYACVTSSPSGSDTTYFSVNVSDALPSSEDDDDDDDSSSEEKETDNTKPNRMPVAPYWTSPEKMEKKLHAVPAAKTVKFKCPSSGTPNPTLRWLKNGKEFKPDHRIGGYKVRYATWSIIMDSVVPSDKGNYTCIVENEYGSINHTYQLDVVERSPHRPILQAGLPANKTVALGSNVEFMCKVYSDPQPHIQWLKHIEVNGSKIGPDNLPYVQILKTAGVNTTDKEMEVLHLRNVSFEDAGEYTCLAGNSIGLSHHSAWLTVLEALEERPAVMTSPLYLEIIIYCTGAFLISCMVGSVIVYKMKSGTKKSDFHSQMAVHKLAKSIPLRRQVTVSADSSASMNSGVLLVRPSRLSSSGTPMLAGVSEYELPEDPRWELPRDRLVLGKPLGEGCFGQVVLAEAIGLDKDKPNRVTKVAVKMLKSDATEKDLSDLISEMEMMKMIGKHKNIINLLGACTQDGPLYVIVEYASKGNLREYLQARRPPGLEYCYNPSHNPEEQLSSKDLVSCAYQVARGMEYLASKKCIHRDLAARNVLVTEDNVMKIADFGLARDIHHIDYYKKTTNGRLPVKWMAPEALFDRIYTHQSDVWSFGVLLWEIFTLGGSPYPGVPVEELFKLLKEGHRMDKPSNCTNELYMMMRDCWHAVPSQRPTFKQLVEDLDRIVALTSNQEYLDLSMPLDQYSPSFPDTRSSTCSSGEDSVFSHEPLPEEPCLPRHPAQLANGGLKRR

| SMILES | TGI % (dosing on Day 21 for the last time) [1] | IC50 [2] | stability enhanced (plasma clearance) compared with the control example 4 ([3]; IV, mice, ratio to control example 4) | AUC(0-t) [3, 5] | clearance [3, 5] | half-life [3, 5] | Vd [3, 5] | AUC(0-t) [3, 6] | Cmax [3, 6] | Tmax [3, 6] | IC50 [4] | F (bioavailability; oral absorption ratio) ([3]; PO gavage 10 mg/kg vs IV 2 mg/kg, female Balb/c nude mice) |
| --- | --- | --- | --- | --- | --- | --- | --- | --- | --- | --- | --- | --- |
| C=CC(=O)N[C@H]1CCOC[C@H]1Nc1ncc(/C=C(\F)c2c(Cl)c(OC)cc(OC)c2Cl)cn1 [Example 16] | 89% | 0.0675 µM | 3 times | 2.8 µM·h | 23.9 mL/min/kg | 40.6 min | 1.2 L/kg | 5.64 µM·h | 3290 nM | 30 min | 2.52 µM | – |
| C=CC(=O)NC1COCC1Nc1ncc(C=C(F)c2c(Cl)c(OC)cc(OC)c2Cl)cn1 (single isomer, unassigned) [Example 21] | 106% | 0.017 µM | – | 1.42 µM·h | 48.2 mL/min/kg | 17.5 min | 0.723 L/kg | 1.07 µM·h | 1120 nM | 15 min | 1.46 µM | 20.4% |
